Test: Short-term stability in spiked pooled human plasma (bench-top, 4 °C, 56 °C)

SMILES	Short-time stability (1h, 56°C) Accuracy [%] (validation standard 2xLLOV)	Short-time stability (24h, 4°C, without daylight) Accuracy [%] (validation standard 2xLLOV)	Short-time stability (24h, RT, with daylight) Accuracy [%] (validation standard 2xLLOV)	Short-time stability (24h, RT, without daylight) Accuracy [%] (validation standard 2xLLOV)	Short-time stability (1h, 56°C) Accuracy [%] (validation standard LLOV)	Short-time stability (24h, 4°C, without daylight) Accuracy [%] (validation standard LLOV)	Short-time stability (24h, RT, with daylight) Accuracy [%] (validation standard LLOV)	Short-time stability (24h, RT, without daylight) Accuracy [%] (validation standard LLOV)	Short-time stability (1h, 56°C) Accuracy [%] (validation standard MOV)	Short-time stability (24h, 4°C, without daylight) Accuracy [%] (validation standard MOV)	Short-time stability (24h, RT, with daylight) Accuracy [%] (validation standard MOV)	Short-time stability (24h, RT, without daylight) Accuracy [%] (validation standard MOV)	Short-time stability (1h, 56°C) Accuracy [%] (validation standard ULOV)	Short-time stability (24h, 4°C, without daylight) Accuracy [%] (validation standard ULOV)	Short-time stability (24h, RT, with daylight) Accuracy [%] (validation standard ULOV)	Short-time stability (24h, RT, without daylight) Accuracy [%] (validation standard ULOV)
COc1cc2nccc(Oc3ccc(NC(=O)Nc4cc(C)on4)c(Cl)c3)c2cc1OC [Tivozanib]	49.4%	103.2%	104.0%	103.9%	38.6%	102.5%	99.0%	100.8%	49.6%	100.8%	103.5%	105.8%	42.5%	98.0%	104.7%	103.8%
CC(=O)Nc1cccc(-n2c(=O)n(C3CC3)c(=O)c3c(Nc4ccc(I)cc4F)n(C)c(=O)c(C)c32)c1 [Trametinib]	40.7%	101.9%	88.2%	94.3%	0.4%	90.4%	78.3%	53.1%	52.0%	115.0%	101.6%	99.7%	47.5%	108.2%	96.8%	92.2%
CCCS(=O)(=O)Nc1ccc(F)c(C(=O)c2c[nH]c3ncc(-c4ccc(Cl)cc4)cc23)c1F [Vemurafenib]	41.6%	93.0%	92.7%	85.9%	34.3%	90.0%	93.0%	82.9%	39.7%	100.4%	89.3%	92.1%	34.6%	93.8%	91.3%	88.2%
CC1(C)CCC(CN2CCN(c3ccc(C(=O)NS(=O)(=O)c4ccc(NCC5CCOCC5)c([N+](=O)[O-])c4)c(Oc4cnc5[nH]ccc5c4)c3)CC2)=C(c2ccc(Cl)cc2)C1 [Venetoclax]	34.5%	102.9%	98.6%	95.7%	–	88.8%	112.5%	102.7%	26.4%	100.5%	96.8%	98.0%	22.4%	99.7%	94.1%	92.7%
CCC1=C[C@@H]2CN(C1)Cc1c([nH]c3ccccc13)[C@@](C(=O)OC)(c1cc3c(cc1OC)N(C)[C@H]1[C@@](O)(C(=O)OC)[C@H](OC(C)=O)[C@]4(CC)C=CCN5CC[C@]31[C@@H]54)C2 [Vinorelbine]	42.2%	88.7%	78.0%	79.3%	67.0%	96.3%	98.2%	96.4%	37.2%	93.6%	66.8%	70.0%	29.6%	91.1%	62.0%	57.4%

Reference: publication PMC8699473, “An Easily Expandable Multi-Drug LC-MS Assay for the Simultaneous Quantification of 57 Oral Antitumor Drugs in Human Plasma” (Cancers, 2021)
